Non-standard residues stand in square brackets, D forms with d. Residues, ends and D or L forms follow the SMILES beside them. ξ: configuration not given here. *: point of attachment. ξF = NC(Cc1ccccc1)C(=O)O; Boc = CC(C)(C)OC(=O)*
melting point | Structure (SMILES)
126 to 128 °C | CCCc1nc2cc(C(=O)c3ccccc3)ccc2n1Cc1ccc(C(=O)OCC)cc1
110 to 112 °C | COc1ccc(-c2nn(Cc3ccccc3)c(=O)cc2-c2ccc(OC)c(F)c2)cc1
158 to 160 °C | CNC(=O)C(Cc1ccccc1)NC(=O)CNC(=O)OC(C)(C)C (stereo not drawn) (Boc-Gly-[ξF]-NHMe)
154 to 155 °C | O=C(C1CCN(S(=O)(=O)c2ccc(Br)cc2)CC1)N1CCC(c2ccncc2)CC1
291 to 293 °C | Cc1nc2c3c(c(C(=O)N4CCOCC4)cc2n1C)CCC(c1ccccc1)O3 (configuration not stated)
158 to 160 °C | NC(=O)N(O)CC#Cc1cccc(Oc2ccccn2)c1
> 300 °C | O=C1Cc2cc(C(=O)O)ccc2N1
167 to 169 °C | CON1CCN2C(=O)C(c3cc(C)ccc3C)C(=O)N2CC1
54 to 56 °C | O=c1c(NCCCO)c(Cl)cnn1COCc1ccccc1
139 to 140 °C | Cc1cc(Cl)nc2ccc(Br)cc12
134 to 136 °C | COC1=C(OC)C(=O)C2=C(CCC(CCOc3ccc4ccccc4n3)CC2)C1=O
87 to 97 °C | Cc1noc(NS(=O)(=O)c2ccccc2-c2ccc(-c3nccs3)cc2)c1C
235 to 236 °C | Cc1cc(-c2nc3c(C)cc(Cl)nn3c2-c2ccnc(NC(=O)c3ccc(F)cc3)c2)ccc1F
44 to 45 °C | CCCCCCc1oc(C=Cc2ccccc2)nc1CO
129 to 130 °C | COC(=O)C(=Cc1cc(OC)c(OC)cc1Br)c1ccccc1C(=O)O
78.5 to 79 °C | Cc1cc(-c2ccc(OC(F)(F)F)cc2)ccc1C1COC(c2c(F)cccc2F)=N1 (configuration not stated)
175 °C | O=C(CC1COC1)N[C@H]1CC[C@H](CCN2CCN(c3nccc4c3OCC4)CC2)CC1
68 to 70 °C | CC1(C)CC(O)CC(C)(C)N1N=Nc1ccccc1
323 °C | Cc1cc(-c2ccc(C(F)(F)F)cc2)nc(-n2cnc(-c3ccc(S(N)(=O)=O)cc3)c2)n1
117 to 118 °C | COc1cc(OCc2nc(-c3ccco3)oc2C)ccc1CO
88 to 90 °C | COc1ccc2c(c1)cc(C=O)n2C
55 to 57 °C | CCC(=O)N1CCSc2cccc(Cl)c2C1

melting point | Structure (SMILES)
82.5 to 84 °C | Cc1cccc(-c2nsc(=O)o2)c1
79 to 80 °C | COc1cc(OC)c(C(=O)C=Cc2ccc3c(c2)OCO3)c(OP(=O)(O)O)c1
87 to 88 °C | O=C1NC(Cc2cccc(OC(F)(F)C(F)F)c2)C(c2ccc(Oc3ccccc3)cn2)O1 (configuration not stated)
107 to 108 °C | COc1cc(C#N)ccc1OCCCN1CCC(c2noc3cc(F)ccc23)CC1
165 to 166 °C | CCCCC#CC#CCOc1ccc(C(=O)O)cc1
96 to 97 °C | Cc1nnc(-c2ccc3occ(-c4cccc(OCc5ccccc5)c4)c3c2)o1
194 to 195 °C | Cc1nc2c(NC(=O)C(C)(C)C)c(C(O)C=Cc3ccccc3)ccn2c1C (configuration not stated)
261 °C | O=C(O)c1cnn2c(C(F)F)cc(-c3ccc(C(F)(F)F)cc3)nc12
97 to 98 °C | COC(=O)C(C)(C)Cc1c(SC(C)(C)C)c2ccc(OC)cc2n1C
69.5 to 70 °C | CN(C)Cc1cc(CCCCCCCOc2ccc(C3=NCCO3)cc2)on1
185 to 187 °C | CC(=O)N(O)C(C)c1ccccc1Nc1c(Cl)ccc(C)c1Cl (configuration not stated)
> 200 °C | Cc1cc(=O)n(Cc2ccccc2)[nH]c1=O
65 to 66 °C | CCN(CC)CCOC(=O)c1ccc(/C=C(\C)c2ccc3c(c2)C(C)(C)CCC3(C)C)cc1
180 °C | CCC(ON=c1c2nccc3cccc(c32)n2cccc12)C(=O)O (configuration not stated)
118 to 121 °C | CC(O)c1ccc(C(O)C(C)(C)C)cc1 (configuration not stated)
130 to 140 °C | O=C(c1ccc(-c2ccn(C(=O)Cc3ccc(Cl)cc3Cl)n2)cc1)N1Cc2cccn2Cc2ccccc21
98 to 99 °C | CCC(CC)Cn1cc(C(=O)C(=O)O)c2cc(-c3ccc(OC(F)(F)F)cc3)ccc21
95 to 97 °C | Fc1ccc(SC(c2cc(F)ccc2F)c2cc(Cl)ncc2Cl)cc1 (configuration not stated)
94 to 95 °C | CCOc1ccc(C(=O)c2ccccc2F)c(Cl)c1Cl
98 to 99 °C | CC(=O)Oc1ccccc1CC1CNC(=O)O1 (configuration not stated)
135 to 140 °C | O=C(O)CCC(CC=Cc1ccccc1)(C(=O)C=Cc1ccc(Cl)cc1)c1ccccc1 (configuration not stated)
214 °C | CN1CCN(c2c(F)c(NCc3ccccc3)c3c(c2F)n2c(=O)n(OCc4ccccc4)c(=O)cc2n3C2CC2)CC1

melting point | Structure (SMILES)
111 to 112 °C | CCOC(=O)/C(=N/OCc1ccccc1)c1ccc(OCCOc2ccc3ccccc3c2)s1
197 to 198 °C | O=C(NCc1ccccc1OC(F)(F)F)[C@@H]1CCCN(c2cccc3c2C(=O)N(Cc2ccncc2)C3=O)C1
112 to 114 °C | CC(CO[N+](=O)[O-])NC(=O)[C@@H]1CSC(=O)N1 (some centres not stated)
92 to 93 °C | CC1C(c2ccc(Cl)cc2)SC(=O)N1C(=O)NN1CCCCC1 (configuration not stated)
191 to 192 °C | COc1cc(Nc2nccc(-c3ccc(Cl)nc3)n2)cc(OC)c1OC
112 to 113 °C | CCn1nc(OCCCc2ccc(OCCOC)cc2OCc2ccc(C(F)(F)F)cc2)cc1CCC(=O)O
196 °C | NC(=O)CCc1cc(-c2ccncc2)sc1-c1ccncc1
> 240 °C | COc1ccc(C(=O)Nc2ccc(F)c(F)c2)cc1NCc1ccc(C(=O)O)cc1
167 to 169 °C | COC(=O)c1ccc(NC(=O)C=C(C)c2cc(C(C)C)c(C(C)C)o2)cc1
154 to 155 °C | CCOC(=O)c1ccc(NC(=O)CCc2ccc(C)cc2)cc1
75 to 77 °C | C#CC1(c2ccc(OC(F)F)c(OCC3CC3)c2)CCC(=O)CC1
65 to 66 °C | CCCOc1ccc(COCCN2CCOCC2)cc1-c1nc2c(CCC)nn(C)c2c(=O)[nH]1
296 °C | NS(=O)(=O)c1ccc(-c2noc(-c3cnn4c(C(F)(F)F)cc(-c5ccc(Cl)cc5)nc34)n2)cc1
113 to 115 °C | O=c1oc(/C=C/c2ccc(OC(F)F)c(OC(F)F)c2)nc2ccccc12
146 to 147 °C | CCOC(=O)N1CCSC1C1=C(C)NC(=O)CS1 (configuration not stated)
141 to 143 °C | CC#CCC(CC#CC)(C(=O)O)S(=O)(=O)c1ccc(OC)cc1
179 to 181 °C | COc1nc(SC)nc(Cl)c1C(=O)O
138 to 140 °C | CCC(CC)Oc1cc(C)nc2c1CCC(=O)N2c1c(C)cc(C)cc1C
196 to 197 °C | CC(=O)c1oc2c(sc3ccccc32)c1O
165 °C | Cc1cc(C)c(C2CC(=O)C=C(O)C2)c(C)c1 (configuration not stated)
105 to 108 °C | O=C(O)COc1ccc(C(=O)c2ccc(F)cc2)c2ccccc12
> 250 °C | O=c1ccc(-c2cccc(-c3ccc(=O)[nH]n3)c2)n[nH]1

Structure (SMILES) | melting point
CN1CCN(c2nc(N)c3cc(Cl)ccc3n2)CC1 | 176 to 178 °C
NC(=O)c1ncn2c1[C@@H]1CCN1C(=O)c1c(Br)cccc1-2 | 314 to 317 °C
CCNC(=O)c1ccc(N2CCNCC2)cc1 | 131 to 134 °C
O=C1CCN2CCc3ccccc3C2(c2ccc(F)cc2)C1 (configuration not stated) | 128 to 130 °C
C[C@H]1CN(c2ccc([N+](=O)[O-])cc2)[C@@H](C)CN1 (relative stereo) | 93 to 94 °C
CCOC(=O)c1cnn2c(-c3cccc(C(F)(F)F)c3)ccnc12 | 97 to 99 °C
